The experiment deals with recombinant human integrin α4β7 (binding to recombinant human MAdCAM-1) (Homo sapiens (Human), UniProt P13612+P26010). The experiment can be described thus: MAdCAM-1/α4β7 integrin binding inhibition activity evaluation test (α4β7-MAdCAM-1 ELISA). The conditions noted are these: plate-coated recombinant human MAdCAM-1, recombinant human α4β7, 2 h room temperature, free form of compound. The procedure: EXAMPLE: MADCAM-1/α4β7 INTEGRIN BINDING INHIBITION ACTIVITY EVALUATION TEST (α4β7-MADCAM-1 ELISA)
recombinant human integrin α4β7 (binding to recombinant human MAdCAM-1), sequence (P13612 34-970): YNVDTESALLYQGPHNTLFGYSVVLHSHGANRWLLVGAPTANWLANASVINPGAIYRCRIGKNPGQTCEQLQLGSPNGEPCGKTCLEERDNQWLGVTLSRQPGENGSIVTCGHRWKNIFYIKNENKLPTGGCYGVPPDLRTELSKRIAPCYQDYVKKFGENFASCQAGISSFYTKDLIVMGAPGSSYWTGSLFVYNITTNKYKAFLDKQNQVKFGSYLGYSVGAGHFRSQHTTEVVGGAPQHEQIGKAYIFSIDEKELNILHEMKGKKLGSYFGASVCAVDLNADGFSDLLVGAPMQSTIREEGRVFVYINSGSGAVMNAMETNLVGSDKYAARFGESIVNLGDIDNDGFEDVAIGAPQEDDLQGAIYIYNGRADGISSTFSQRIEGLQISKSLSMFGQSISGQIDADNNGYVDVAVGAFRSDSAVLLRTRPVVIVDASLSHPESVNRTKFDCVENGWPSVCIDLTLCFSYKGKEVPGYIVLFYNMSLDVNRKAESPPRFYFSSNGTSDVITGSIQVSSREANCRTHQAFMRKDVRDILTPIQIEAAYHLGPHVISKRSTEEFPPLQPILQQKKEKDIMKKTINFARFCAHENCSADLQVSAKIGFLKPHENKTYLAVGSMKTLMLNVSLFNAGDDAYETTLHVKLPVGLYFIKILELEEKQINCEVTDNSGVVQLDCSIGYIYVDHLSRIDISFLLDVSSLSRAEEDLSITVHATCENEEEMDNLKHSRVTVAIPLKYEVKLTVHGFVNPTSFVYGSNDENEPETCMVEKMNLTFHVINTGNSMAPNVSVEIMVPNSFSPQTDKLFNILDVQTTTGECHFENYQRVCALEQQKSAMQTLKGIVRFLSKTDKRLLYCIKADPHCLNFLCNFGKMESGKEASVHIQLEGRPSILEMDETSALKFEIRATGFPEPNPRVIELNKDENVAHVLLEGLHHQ
recombinant human integrin α4β7 (binding to recombinant human MAdCAM-1), sequence (P26010 20-723): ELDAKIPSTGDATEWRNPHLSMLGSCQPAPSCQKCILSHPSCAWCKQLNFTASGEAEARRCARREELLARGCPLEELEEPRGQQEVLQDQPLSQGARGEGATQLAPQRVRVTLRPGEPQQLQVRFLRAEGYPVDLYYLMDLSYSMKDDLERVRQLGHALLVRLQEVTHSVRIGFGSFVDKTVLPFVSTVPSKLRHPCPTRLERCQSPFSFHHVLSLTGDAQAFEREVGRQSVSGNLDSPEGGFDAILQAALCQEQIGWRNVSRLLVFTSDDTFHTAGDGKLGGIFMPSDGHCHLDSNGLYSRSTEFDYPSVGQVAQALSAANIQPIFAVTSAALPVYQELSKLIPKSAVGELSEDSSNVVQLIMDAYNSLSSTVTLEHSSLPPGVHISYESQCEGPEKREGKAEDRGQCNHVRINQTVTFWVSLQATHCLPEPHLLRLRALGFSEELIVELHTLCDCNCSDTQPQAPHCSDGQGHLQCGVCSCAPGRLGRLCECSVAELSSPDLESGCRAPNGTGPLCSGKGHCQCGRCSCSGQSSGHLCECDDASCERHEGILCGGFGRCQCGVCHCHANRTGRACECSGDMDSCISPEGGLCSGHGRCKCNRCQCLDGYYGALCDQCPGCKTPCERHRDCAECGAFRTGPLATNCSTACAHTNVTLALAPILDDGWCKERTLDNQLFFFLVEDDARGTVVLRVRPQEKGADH
Coat the 96-well microplate (Costar) with 50 μL of recombinant human MAdCAM-1 (R&D Systems) solution per well, and incubate overnight (12-18 hours) at 4° C. Wash three times with 150 μL of TBS buffer per well. Block plate with 150 μL per well with blocking buffer for 1 h at 37° C. Wash three times with 150 μL of TBS buffer per well. Dilute the recombinant human integrin α4β7 (R&D Systems) with TBS buffer containing 0.1% bovine serum albumin (BSA), then add to the 96 well plate with 50 μL per well. Add 1 μL of test compound or DMSO, cover, incubate at room temperature for 2 h, wash three times with 150 μL of TBS buffer per well. Dilute the anti-β7 antibody (R&D Systems) with 0.1% BSA TBS buffer, then add to the 96 well plate with 50 μL per well, cover, incubate at room temperature for 1 h, wash three times with 150 μL of TBS buffer per well. Add 50 μL of streptavidin-HRP (R&D Systems) per well, incubate at room temperature for 20 min, wash three times with 150 μL of TBS buffer per well. Add 50 μL of TMB substrate solution (Sigma) per well, incubate at room temperature for 5-30 min, and add 25 μL of stop solution per well to stop the reaction. Finally, measure absorbance at 450 nm with microplate reader (SpectraMax 340PC. Molecular Devices). Repeat the test to find the binding rate of cells at each concentration when the absorbance of the well without the test substance is used as 100%, and calculate the concentration IC50 that causes 50% binding inhibition and summarize the results in Table 1.
It should be stated that, as a test compound, the free form of the compound synthesized in the above examples is used.
On the technique in general: ELISA stands for enzyme-linked immunosorbent assay.
Broadly, the IC50 is the midpoint of a concentration-inhibition curve. Turning to `O=C(N[C@@H](Cc1ccc(-n2c(=O)n(C3CCOCC3)c3cccc(Cl)c32)cc1)C(=O)O)c1c(F)cccc1Cl` [Example 28, (S)-3-(4-(7-chloro-2-oxo-3-(tetrahydro-2H-pyran-4-yl)-2,3-dihydro-1H-benzo[d]imidazol-1-yl)phenyl)-2-(2-chloro-6-fluorobenzoylamino)propionic acid], the IC50 came to 10.9 nM. The figure for `CN1CCC(n2c(=O)n(-c3ccc(C[C@H](NC(=O)c4c(F)cccc4Cl)C(=O)O)cc3)c3c(Cl)cccc32)CC1` [Example 29, (S)-3-(4-(7-chloro-3-(1-methylpiperidin-4-yl)-2-oxo-2,3-dihydro-1H-benzo[d]imidazol-1-yl)phenyl)-2-(2-chloro-6-fluorobenzoylamino)propionic acid] is 18.1 nM; for `Cn1c(=O)n(-c2ccc(C[C@H](NC(=O)c3c(F)cccc3Cl)C(=O)O)cc2)c2c(F)cc(F)cc21` [Example 31, (S)-2-(2-chloro-6-fluorobenzoylamino)-3-(4-(5,7-difluoro-3-methyl-2-oxo-2,3-dihydro-H-benzo[d]imidazol-1-yl)phenyl)propionic acid] it is 5.34 nM. The figure for `Cn1c(=O)n(-c2ccc(C[C@H](NC(=O)c3c(F)cccc3Cl)C(=O)O)cc2)c2cc(Cl)c(Cl)cc21` [Example 32, (S)-2-(2-chloro-6-fluorobenzoylamino)-3-(4-(5,6-dichloro-3-methyl-2-oxo-2,3-dihydro-H-benzo[d]imidazol-1-yl)phenyl)propionic acid] is 4.19 nM; for `Cn1c(=O)n(-c2ccc(C[C@H](NC(=O)c3c(F)cccc3Cl)C(=O)O)cc2)c2c(F)c(F)ccc21` [Example 33, (S)-2-(2-chloro-6-fluorobenzoylamino)-3-(4-(6,7-difluoro-3-methyl-2-exo-2,3-dihydro-1H-benzo[d]imidazol-1-yl)phenyl)propionic acid] it is 2.7 nM; for `Cn1c(=O)n(-c2ccc(C[C@H](NC(=O)c3c(F)cccc3Cl)C(=O)O)cc2)c2ccc(F)c(F)c21` [Example 34, (S)-2-(2-chloro-6-fluorobenzoylamino)-3-(4-(4,5-difluoro-3-methyl-2-oxo-2,3-dihydro-1H-benzo[d]imidazol-1-yl)phenyl)propionic acid] it is 10.5 nM. Then `COc1cccc2c1n(-c1ccc(C[C@H](NC(=O)c3c(F)cccc3Cl)C(=O)O)cc1)c(=O)n2C` [Example 35, (S)-2-(2-chloro-6-fluorobenzoylamino)-3-(4-(7-methoxy-3-methyl-2-oxo-2,3-dihydro-1H-benzo[d]imidazol-1-yl)phenyl)propionic acid], with 0.45 nM. In the case of `CN(C)c1ccc2c(c1)n(-c1ccc(C[C@H](NC(=O)c3c(F)cccc3Cl)C(=O)O)cc1)c(=O)n2C` [Example 36, (S)-2-(2-chloro-6-fluorobenzoylamino)-3-(4-(6-(dimethylamino)-3-methyl-2-oxo-2,3-dihydro-1H-benzo[d]imidazol-1-yl)phenyl)propionic acid], the half-inhibitory concentration (IC50) was 1.51 nM. The figure for `CN(C)c1ccc2c(c1)n(C)c(=O)n2-c1ccc(C[C@H](NC(=O)c2c(F)cccc2Cl)C(=O)O)cc1` [Example 37, (S)-2-(2-chloro-6-fluorobenzoylamino)-3-(4-(5-(dimethylamino)-3-methyl-2-oxo-2,3-dihydro-1H-benzo[d]imidazol-1-yl)phenyl)propionic acid] is 5.09 nM.

On to `Cn1c(=O)n(-c2ccc(C[C@H](NC(=O)c3c(Cl)cc(Cl)cc3Cl)C(=O)O)cc2)c2c(Cl)cccc21` [Example 38, (S)-3-(4-(7-chloro-3-methyl-2-oxo-2,3-dihydro-1H-benzo[d]imidazol-1-yl)phenyl)-2-(2,4,6-trichlorobenzamido)propionic acid], for which the IC50 amounted to 27.9 nM. Then `Cn1c(=O)n(-c2ccc(C[C@H](NC(=O)c3c(Cl)cc(N4CCOCC4)cc3Cl)C(=O)O)cc2)c2c(Cl)cccc21` [Example 39], with 3.65 nM.

The values above are taken from patent US20240150287A1, “N-(BENZOYL)-PHENYLALANINE COMPOUND, PHARMACEUTICAL COMPOSITION CONTAINING SAME, AND USE THEREOF” (Hangzhou Apeloa Medicine Research Institute Co., Ltd., priority 2021, published 2024).
